Laboratory results from ChEMBL document CHEMBL1201862, “PubChem BioAssay data set” (2004).
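Following 48 hours of exposure in 96-well plates, responses at five concentrations were used to interpolate endpoints linearly. GI50 is the concentration that inhibits growth by half.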 The source made the active and inactive calls. No stated cut-off is given here; in the data, active = GI50 up to about 1.1 µM and inactive = higher.

What was measured:
Assay in all cases: DTP human tumour cell line panel, 48 h
PC-3 = tested on: PC-3
HCT-15 = tested on: HCT-15
MDA-N = tested on: MDA-N
SK-MEL-2 = tested on: SK-MEL-2
HCC 2998 = tested on: HCC 2998
NCI-H23 = tested on: NCI-H23
NCI-H460 = tested on: NCI-H460
RPMI-8226 = tested on: RPMI-8226
MOLT-4 = tested on: MOLT-4
OVCAR-3 = tested on: OVCAR-3
IGROV-1 = tested on: IGROV-1
HL-60 = tested on: HL-60
DU-145 = tested on: DU-145
HCT-116 = tested on: HCT-116
SF-295 = tested on: SF-295
Hs-578T = tested on: Hs-578T
SF-539 = tested on: SF-539
BT-549 = tested on: BT-549
UACC-62 = tested on: UACC-62
SK-OV-3 = tested on: SK-OV-3

O=C1OC(C(O)CO)C(O)=C1O (centres undefined)
GI50 (PC-3): > 100 µM (inactive)
GI50 (HCT-15): > 100 µM
GI50 (MDA-N): > 100 µM (inactive)
GI50 (SK-MEL-2): > 100 µM (inactive)
GI50 (HCC 2998): > 100 µM (inactive)
GI50 (NCI-H23): > 100 µM (inactive)
GI50 (NCI-H460): > 100 µM (inactive)
GI50 (RPMI-8226): 49.2 µM (inactive)
GI50 (MOLT-4): > 100 µM (inactive)
GI50 (OVCAR-3): > 100 µM (inactive)
GI50 (IGROV-1): > 100 µM (inactive)
GI50 (HL-60): > 100 µM (inactive)
GI50 (DU-145): > 100 µM (inactive)
GI50 (HCT-116): > 100 µM (inactive)
GI50 (SF-295): > 100 µM (inactive)
GI50 (Hs-578T): > 100 µM (inactive)
GI50 (SF-539): > 100 µM (inactive)

O=Cc1ccccc1B(O)O
GI50 (BT-549): 15.1 µM (inactive)
GI50 (PC-3): 22.1 µM (inactive)
GI50 (HCT-15): 62.7 µM
GI50 (SK-MEL-2): > 100 µM (inactive)
GI50 (NCI-H460): > 100 µM (inactive)
GI50 (RPMI-8226): < 0.01 µM (active)
GI50 (MOLT-4): 1.09 µM (active)
GI50 (OVCAR-3): 33.6 µM (inactive)
GI50 (IGROV-1): 29.6 µM (inactive)
GI50 (UACC-62): 31.5 µM (inactive)
GI50 (SK-OV-3): > 100 µM (inactive)
GI50 (HL-60): 22 µM (inactive)
GI50 (DU-145): < 0.01 µM (active)
GI50 (HCT-116): 43.2 µM (inactive)
GI50 (SF-295): > 100 µM (inactive)
GI50 (Hs-578T): 0.231 µM (active)
GI50 (SF-539): > 100 µM (inactive)

COc1ccc(N2C(=O)C3c4[nH]c5cccc(C)c5c4C4CCC(C(C)(C)C)CC4C3C2=O)cc1 (centres undefined)
GI50 (PC-3): > 10 µM (inactive)
GI50 (HCT-15): > 10 µM
GI50 (MDA-N): > 10 µM (inactive)
GI50 (SK-MEL-2): > 10 µM (inactive)
GI50 (HCC 2998): > 10 µM (inactive)
GI50 (NCI-H23): > 10 µM (inactive)
GI50 (NCI-H460): 4.68 µM (inactive)
GI50 (RPMI-8226): > 10 µM (inactive)
GI50 (MOLT-4): > 10 µM (inactive)
GI50 (OVCAR-3): > 10 µM (inactive)
GI50 (IGROV-1): > 10 µM (inactive)
GI50 (UACC-62): > 10 µM (inactive)
GI50 (SK-OV-3): > 10 µM (inactive)
GI50 (HL-60): > 10 µM (inactive)
GI50 (DU-145): > 10 µM (inactive)
GI50 (HCT-116): 5.62 µM (inactive)
GI50 (SF-295): > 10 µM (inactive)
GI50 (Hs-578T): > 10 µM (inactive)
GI50 (SF-539): > 10 µM (inactive)

O/N=C1\CC2(N3CCOCC3)CCC1(Cc1ccccc1)CC2
GI50 (PC-3): > 100 µM (inactive)
GI50 (HCT-15): > 100 µM
GI50 (MDA-N): > 100 µM (inactive)
GI50 (SK-MEL-2): 37.4 µM (inactive)
GI50 (HCC 2998): > 100 µM (inactive)
GI50 (NCI-H23): 64.1 µM (inactive)
GI50 (NCI-H460): > 100 µM (inactive)
GI50 (MOLT-4): > 100 µM (inactive)
GI50 (OVCAR-3): > 100 µM (inactive)
GI50 (IGROV-1): 43.6 µM (inactive)
GI50 (UACC-62): > 10 µM (inactive)
GI50 (SK-OV-3): 30.5 µM (inactive)
GI50 (HL-60): > 100 µM (inactive)
GI50 (DU-145): > 100 µM (inactive)
GI50 (HCT-116): 35.6 µM (inactive)
GI50 (SF-295): 22.9 µM (inactive)
GI50 (SF-539): 23.2 µM (inactive)

Cc1c(C(=O)CC(=O)C(=O)Nc2c(C(C)C)cccc2C(C)C)[n+]([O-])c2ccccc2[n+]1[O-]
GI50 (HCT-15): 2.79 µM
GI50 (SK-MEL-2): 11.4 µM (inactive)
GI50 (HCC 2998): 5.14 µM (inactive)
GI50 (NCI-H23): 13.2 µM (inactive)
GI50 (NCI-H460): 2.62 µM (inactive)
GI50 (RPMI-8226): 3.18 µM (inactive)
GI50 (MOLT-4): 2.9 µM (inactive)
GI50 (OVCAR-3): 2.08 µM (inactive)
GI50 (IGROV-1): 3.55 µM (inactive)
GI50 (UACC-62): 9.98 µM (inactive)
GI50 (SK-OV-3): 16.7 µM (inactive)
GI50 (HL-60): 2.4 µM (inactive)
GI50 (HCT-116): 2.81 µM (inactive)
GI50 (SF-295): 14.8 µM (inactive)
GI50 (SF-539): 4.43 µM (inactive)

N#Cc1c(N)oc(-c2cccc([N+](=O)[O-])c2)c1C#N
GI50 (PC-3): 62.8 µM (inactive)
GI50 (HCT-15): 16.1 µM
GI50 (SK-MEL-2): 44.5 µM (inactive)
GI50 (HCC 2998): 19.5 µM (inactive)
GI50 (NCI-H23): 21.4 µM (inactive)
GI50 (RPMI-8226): 22 µM (inactive)
GI50 (IGROV-1): 23.6 µM (inactive)
GI50 (UACC-62): 30 µM (inactive)
GI50 (SK-OV-3): > 100 µM (inactive)
GI50 (HL-60): 28.5 µM (inactive)
GI50 (DU-145): > 100 µM (inactive)
GI50 (HCT-116): 33.7 µM (inactive)
GI50 (SF-295): > 100 µM (inactive)
GI50 (Hs-578T): 32.8 µM (inactive)
GI50 (SF-539): 23.2 µM (inactive)

CC(C)(C)NNc1c([N+](=O)[O-])cnn(-c2ccccc2)c1=O
GI50 (BT-549): 1.41 µM (inactive)
GI50 (PC-3): 1.83 µM (inactive)
GI50 (HCT-15): 3.95 µM
GI50 (SK-MEL-2): > 10 µM (inactive)
GI50 (HCC 2998): 7.14 µM (inactive)
GI50 (NCI-H23): 4.82 µM (inactive)
GI50 (NCI-H460): 7.36 µM (inactive)
GI50 (RPMI-8226): 3.96 µM (inactive)
GI50 (MOLT-4): 2.13 µM (inactive)
GI50 (OVCAR-3): 2.59 µM (inactive)
GI50 (IGROV-1): 20.4 µM (inactive)
GI50 (UACC-62): 3.5 µM (inactive)
GI50 (SK-OV-3): 9.02 µM (inactive)
GI50 (HL-60): 1.34 µM (inactive)
GI50 (DU-145): 12.8 µM (inactive)
GI50 (HCT-116): 2.46 µM (inactive)
GI50 (SF-295): 6.28 µM (inactive)
GI50 (Hs-578T): 7.76 µM (inactive)
GI50 (SF-539): 13.2 µM (inactive)

CC(Nc1ccc(S(=O)(=O)NC(=N)N)cc1)c1c2ccccc2nc2ccccc12 (centres undefined)
GI50 (HCT-15): 29.2 µM
GI50 (SK-MEL-2): 22.5 µM (inactive)
GI50 (HCC 2998): 27.5 µM (inactive)
GI50 (NCI-H23): 22.5 µM (inactive)
GI50 (NCI-H460): 25.4 µM (inactive)
GI50 (RPMI-8226): 16.3 µM (inactive)
GI50 (MOLT-4): 14.6 µM (inactive)
GI50 (OVCAR-3): > 10 µM (inactive)
GI50 (IGROV-1): 46.5 µM (inactive)
GI50 (UACC-62): > 10 µM (inactive)
GI50 (SK-OV-3): 26.4 µM (inactive)
GI50 (HL-60): 14.5 µM (inactive)
GI50 (HCT-116): > 10 µM (inactive)
GI50 (SF-295): 35.2 µM (inactive)
GI50 (SF-539): 22.9 µM (inactive)
